The target of the assay is T1, GPR40 (Homo sapiens, UniProt O14842).
T1 construct: expressed in transfected cells; host or cells: HEK293 cells stably expressing GPR40 (Hygromycin selection)
The experiment in a line: IP1 accumulation assay in HEK293 cells stably expressing GPR40. In kind it is cell-based. An outline of the steps: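 HEK293 cells stably expressing human GPR40 were incubated with compounds (10-point, 3-fold dilution series) for 2 h at 37 °C, then IP1 was detected by HTRF (665/615 nm ratio). Effect was normalised to DMSO blank and AMG-1638 as 100%, and EC50 was derived from dose curves.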

[1] abbreviates: IP1 accumulation, HEK293 cells stably expressing GPR40, 2 hours at 37° C., % effect relative to AMG-1638, table of Biological Example 1.
[2] abbreviates: Table A-8 (additional examples), obtained by methods of Biological Example 1.
Setting [3] is: Tables A-1a to A-7b (structure-property relationship), obtained by methods of Biological Example 1.

Some results are limits rather than exact numbers.

T1 sequence (O14842 whole entry): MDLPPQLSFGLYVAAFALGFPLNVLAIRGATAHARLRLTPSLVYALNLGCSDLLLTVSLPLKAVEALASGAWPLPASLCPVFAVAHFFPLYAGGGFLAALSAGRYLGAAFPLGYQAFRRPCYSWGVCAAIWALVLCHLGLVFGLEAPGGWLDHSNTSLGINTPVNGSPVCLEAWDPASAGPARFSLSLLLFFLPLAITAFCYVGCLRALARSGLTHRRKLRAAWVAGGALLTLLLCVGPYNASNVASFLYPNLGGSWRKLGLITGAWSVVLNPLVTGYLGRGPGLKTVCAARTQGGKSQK

On to `C[C@H](C(=O)O)[C@H](c1ccc2c(c1)O[C@@H](C1CCN(Cc3cc(-n4cc(COCCOCCOCCOCCOCC(=O)NCC[N+](C)(CCC(=O)NCCN)CCC(=O)NCCN)nn4)ccc3OC(F)(F)F)CC1)CC2)C1CC1` [Example 176], for which the EC50 was greater than 10000 nM under setting [1] and greater than 10000 nM under setting [2].
With `COc1ccc(C(=O)N(CC(C)(C)CCn2cc(CCCCCCCCCCCCCCC(=O)NCC[N+](C)(CCC(=O)NCCN)CCC(=O)NCCN)nn2)c2cccc(C)n2)c(N2CCC(c3cc4ccc([C@@H](CC(=O)O)C5CC5)cc4o3)CC2)c1` [Example 177], the EC50 under setting [1] is 0.08 nM.
Still for that read-out and setting: then `COc1ccc(C(=O)N(CC(C)(C)CCn2cc(COCCOCCOCCOCCOCC(=O)NCC[N+](C)(CCC(=O)NCCN)CCC(=O)NCCN)nn2)c2cccc(C)n2)c(N2CCC(c3cc4ccc([C@@H](CC(=O)O)C5CC5)cc4o3)CC2)c1` [Example 178], with 2030 nM; and `COc1ccc(F)c(-n2nnc(COc3cccc([C@@H](CC(=O)O)C4CC4)c3)c2CC(C)(C)Cn2cc(CCCCCCCCCCCCCCCC(=O)NCCN(CCC(=O)NCCN)CCC(=O)NCCN)nn2)c1` [Example 179], with 50 nM; and `COc1ccc(F)c(-n2nnc(COc3cccc([C@@H](CC(=O)O)C4CC4)c3)c2CC(C)(C)Cn2cc(COCCOCCOCCOCCOCC(=O)NCCN(CCC(=O)NCCN)CCC(=O)NCCN)nn2)c1` [Example 180], with greater than 10000 nM.
Still for that read-out and setting: then `COc1ccc(F)c(-n2nnc(COc3cccc([C@@H](CC(=O)O)C4CC4)c3)c2CC(C)(C)Cn2cc(CCCCCCCCCCCCCCCC(=O)NCC[N+](C)(CCC(=O)NCCN)CCC(=O)NCCN)nn2)c1` [Example 181], with 16.1 nM.
The same measure, in the same setting: then `COc1ccc(F)c(-n2nnc(COc3cccc([C@@H](CC(=O)O)C4CC4)c3)c2CC(C)(C)Cn2cc(COCCOCCOCCOCCOCC(=O)NCC[N+](C)(CCC(=O)NCCN)CCC(=O)NCCN)nn2)c1` [Example 182], with greater than 10000 nM.
As for `C[C@H](C(=O)O)[C@H](c1ccc2c(c1)O[C@@H](C1CCN(Cc3cc(-n4cc(CCCCCCCCCCCCCCCC(=O)NCCN(CCC(=O)NCCN)CCC(=O)NCCN)nn4)ccc3OC(F)(F)F)CC1)CC2)C1CC1` [Example 185], the EC50 runs as follows: under setting [1], 0.05 nM; under setting [2], 0.05 nM; under setting [3], 0.05 nM.
Take `C[C@H](C(=O)O)[C@H](c1ccc2c(c1)O[C@@H](C1CCN(Cc3cc(-n4cc(CCCCCCCCCCCCCCCC(=O)NCC[N+](C)(CCC(=O)NCCN)CCC(=O)NCCN)nn4)ccc3OC(F)(F)F)CC1)CC2)C1CC1` [Example 186]: the EC50 was determined as 0.03 nM under setting [1], 0.05 nM under setting [2] and 0.05 nM under setting [3].
For `COc1ccc(F)c(-c2ccc(COc3cccc([C@@H](CC(=O)O)C4CC4)c3)cc2CC(C)(C)Cn2cc(CCCCCCCCCCCCCCCC(=O)NCCN(CCC(=O)NCCN)CCC(=O)NCCN)nn2)c1` [Example 187], the midpoint of the response under setting [1], the EC50, lay at 1.34 nM; the midpoint of the response under setting [2], the EC50, lay at 1.34 nM; the EC50 under setting [3] is 1.34 nM.
Regarding `COc1ccc(F)c(-c2ccc(COc3cccc([C@@H](CC(=O)O)C4CC4)c3)cc2CC(C)(C)Cn2cc(CCCCCCCCCCCCCCCC(=O)NCC[N+](C)(CCC(=O)NCCN)CCC(=O)NCCN)nn2)c1` [Example 188], the EC50 by setting is: under setting [1], 1.53 nM; under setting [2], 1.53 nM; under setting [3], 1.53 nM.
Regarding `COc1ccc(C(=O)N(CC(C)(C)CCCCCCn2cc(CCCCCCCCCCCCCC(=O)NCCN(CCC(=O)NCCN)CCC(=O)NCCN)nn2)c2cccc(C)n2)c(N2CCC(COc3cc([C@@H](CC(=O)O)C4CC4)ccn3)CC2)c1` [Example 189], the EC50 reads like this: under setting [1], 0.05 nM; under setting [3], 0.05 nM.
In the case of `COc1ccc(C(=O)N(CC(C)(C)CCCCCCn2cc(CCCCCCCCCCCCCC(=O)NCC[N+](C)(CCC(=O)NCCN)CCC(=O)NCCN)nn2)c2cccc(C)n2)c(N2CCC(COc3cc([C@@H](CC(=O)O)C4CC4)ccn3)CC2)c1` [Example 190], the EC50 is, setting by setting: under setting [1], 0.05 nM; under setting [3], 0.05 nM.
Take `COc1ccc(F)c(-c2ccc(COc3cccc([C@@H](CC(=O)O)C4CC4)c3)cc2CC(C)(C)Cn2cc(CCCCCCCCCC(=O)NCCN(CCC(=O)NCCN)CCC(=O)NCCN)nn2)c1` [Example 191]: the EC50 was 204 nM under setting [1], 209 nM under setting [2] and 204 nM under setting [3].
As for `COc1ccc(F)c(-c2ccc(COc3cccc([C@@H](CC(=O)O)C4CC4)c3)cc2CC(C)(C)Cn2cc(CCCCCCCCCC(=O)NCC[N+](C)(CCC(=O)NCCN)CCC(=O)NCCN)nn2)c1` [Example 192], the EC50 was 250 nM under setting [1], 251 nM under setting [2] and 250 nM under setting [3].
Molecule `C[C@H](C(=O)O)[C@H](c1ccc2c(c1)O[C@@H](C1CCN(Cc3cc(-n4cc(CCCCCCCCCC(=O)NCCN(CCC(=O)NCCN)CCC(=O)NCCN)nn4)ccc3OC(F)(F)F)CC1)CC2)C1CC1` [Example 193] displayed an EC50 under setting [1] of 413 nM, an EC50 under setting [2] of 413 nM and an EC50 under setting [3] of 413 nM.
Regarding `C[C@H](C(=O)O)[C@H](c1ccc2c(c1)O[C@@H](C1CCN(Cc3cc(-n4cc(CCCCCCCCCC(=O)NCC[N+](C)(CCC(=O)NCCN)CCC(=O)NCCN)nn4)ccc3OC(F)(F)F)CC1)CC2)C1CC1` [Example 194], the EC50 is, setting by setting: under setting [1], 114 nM; under setting [2], 94 nM; under setting [3], 114 nM.
Regarding `COc1ccc(C(=O)N(CC(C)(C)CCn2cc(CCCCC(=O)NCCN(CCC(=O)NCCN)CCC(=O)NCCN)nn2)c2cccc(C)n2)c(N2CCC(COc3cc([C@@H](CC(=O)O)C4CC4)ccn3)CC2)c1` [Example 195], under setting [1], the EC50 is greater than 10000 nM.
Consider `COc1ccc(C(=O)N(CC(C)(C)CCn2cc(CCCCCCC(=O)NCCN(CCC(=O)NCCN)CCC(=O)NCCN)nn2)c2cccc(C)n2)c(N2CCC(COc3cc([C@@H](CC(=O)O)C4CC4)ccn3)CC2)c1` [Example 196], for which the EC50 amounted to 9870 nM under setting [1] and 9870 nM under setting [3].
`COc1ccc(C(=O)N(CC(C)(C)CCn2cc(CCCCCCCCCC(=O)NCCN(CCC(=O)NCCN)CCC(=O)NCCN)nn2)c2cccc(C)n2)c(N2CCC(COc3cc([C@@H](CC(=O)O)C4CC4)ccn3)CC2)c1` [Example 197]: the 50% effective concentration (EC50) is 84.3 nM under setting [1], 84 nM under setting [2] and 84.3 nM under setting [3].
The molecule `COc1ccc(C(=O)N(CC(C)(C)CCn2cc(CCCCCCCCCCCCCCCC(=O)NCCN(CCC(=O)NCCN)CCC(=O)NCCN)nn2)c2cccc(C)n2)c(N2CCC(COc3cc([C@@H](CC(=O)O)C4CC4)ccn3)CC2)c1` [Example 198] had an EC50 under setting [1] of 0.17 nM, an EC50 under setting [2] of 0.17 nM and an EC50 under setting [3] of 0.17 nM.
Take `COc1ccc(C(=O)N(CC(C)(C)CCn2cc(CCCCC(=O)NCC[N+](C)(CCC(=O)NCCN)CCC(=O)NCCN)nn2)c2cccc(C)n2)c(N2CCC(COc3cc([C@@H](CC(=O)O)C4CC4)ccn3)CC2)c1` [Example 199]: the EC50 is, setting by setting: under setting [1], greater than 10000 nM; under setting [3], greater than 10000 nM.
Molecule `COc1ccc(C(=O)N(CC(C)(C)CCn2cc(CCCCCCC(=O)NCC[N+](C)(CCC(=O)NCCN)CCC(=O)NCCN)nn2)c2cccc(C)n2)c(N2CCC(COc3cc([C@@H](CC(=O)O)C4CC4)ccn3)CC2)c1` [Example 200] showed an EC50 under setting [1] greater than 10000 nM and an EC50 under setting [3] greater than 10000 nM.
Regarding `COc1ccc(C(=O)N(CC(C)(C)CCn2cc(CCCCCCCCCC(=O)NCC[N+](C)(CCC(=O)NCCN)CCC(=O)NCCN)nn2)c2cccc(C)n2)c(N2CCC(COc3cc([C@@H](CC(=O)O)C4CC4)ccn3)CC2)c1` [Example 201], the EC50 is, setting by setting: under setting [1], 44.6 nM; under setting [2], 45 nM; under setting [3], 45 nM.
Turning to `COc1ccc(C(=O)N(CC(C)(C)CCn2cc(CCCCCCCCCCCCCCCC(=O)NCC[N+](C)(CCC(=O)NCCN)CCC(=O)NCCN)nn2)c2cccc(C)n2)c(N2CCC(COc3cc([C@@H](CC(=O)O)C4CC4)ccn3)CC2)c1` [Example 202], the EC50 runs as follows: under setting [1], 0.16 nM; under setting [2], 0.16 nM; under setting [3], 0.16 nM.
`COc1ccc(C(=O)N(CC(C)(C)CCCCCCn2cc(CCCCCCCCC(=O)NCCCN(CC(=O)O)CC(=O)O)nn2)c2cccc(C)n2)c(N2CCC(COc3cc([C@@H](CC(=O)O)C4CC4)ccn3)CC2)c1` [Example 203]: the EC50 under setting [1] is 11.9 nM.
Still for that read-out and setting: then `COc1ccc(C(=O)N(CC(C)(C)CCCCCCn2cc(CCCCCCCCCC(=O)NCCCN(CC(=O)O)CC(=O)O)nn2)c2cccc(C)n2)c(N2CCC(COc3cc([C@@H](CC(=O)O)C4CC4)ccn3)CC2)c1` [Example 204], with 7 nM; and `COc1ccc(C(=O)N(CC(C)(C)CCCCCCn2cc(CCCCCCCCCCCC(=O)NCCCN(CC(=O)O)CC(=O)O)nn2)c2cccc(C)n2)c(N2CCC(COc3cc([C@@H](CC(=O)O)C4CC4)ccn3)CC2)c1` [Example 205], with 0.93 nM.
`COc1ccc(C(=O)N(CC(C)(C)CCCCCCn2cc(CCCCCCCCCCCCCC(=O)NCCCN(CC(=O)O)CC(=O)O)nn2)c2cccc(C)n2)c(N2CCC(COc3cc([C@@H](CC(=O)O)C4CC4)ccn3)CC2)c1` [Example 206]: the EC50 under setting [1] was found to be 0.59 nM.
Take `COc1ccc(C(=O)N(CC(C)(C)CCCCCCn2cc(CCCCCCCCC(=O)NCCC[N+](C)(CC(=O)[O-])CC(=O)O)nn2)c2cccc(C)n2)c(N2CCC(COc3cc([C@@H](CC(=O)O)C4CC4)ccn3)CC2)c1` (some centres unmarked) [Example 207]: under setting [1], the EC50 was found to be 20.5 nM.
Same read-out and setting: then `COc1ccc(C(=O)N(CC(C)(C)CCCCCCn2cc(CCCCCCCCCC(=O)NCCC[N+](C)(CC(=O)[O-])CC(=O)O)nn2)c2cccc(C)n2)c(N2CCC(COc3cc([C@@H](CC(=O)O)C4CC4)ccn3)CC2)c1` (some centres unmarked) [Example 208], with 5.15 nM; and `COc1ccc(C(=O)N(CC(C)(C)CCCCCCn2cc(CCCCCCCCCCCC(=O)NCCC[N+](C)(CC(=O)[O-])CC(=O)O)nn2)c2cccc(C)n2)c(N2CCC(COc3cc([C@@H](CC(=O)O)C4CC4)ccn3)CC2)c1` (some centres unmarked) [Example 209], with 1 nM.

These data come from patent publication US20250223281A1, “ANTIDIABETIC COMPOUNDS AND COMPOSITIONS” (REZUBIO PHARMACEUTICALS CO., LTD, priority 2022, published 2025).
